Read-outs that look alike come from different tables or passages of the source.
Columns and labels:
wheat powdery mildew = assay: Test on preventive effect against wheat powdery mildew; assay type: in vivo, Wheat (cultivar: Norin-61-go); conditions: Triticum aestivum, foliar spray before inoculation, examined 6 to 8 days after inoculation, read-out: controlling effects as compared with non-treated cases (area of sporogony)
Method: Tests on Preventive Effect Against Wheat Powdery Mildew Wheat (cultivar: […] After the drug solution dried, the wheat was inoculated by spreading with conidiospore of fungi of powdery mildew, and the wheat was kept in a thermostatic chamber at 20° C. From 6 to 8 days after the inoculation, the area of sporogony was examined.

rice blast = assay: whole plant or invertebrate; assay type: in vivo, Rice (cultivar: Nihonbare); conditions: Pyricularia oryzae, foliar, read-out: controlling effects as compared with non-treated cases (number of lesions)
cucumber powdery mildew [1] = assay: Test on preventive effect against cucumber powdery mildew; assay type: in vivo, Cucumber (cultivar: Suyo); conditions: Cucumis sativus, foliar spray before inoculation, examined 6 to 11 days after inoculation, read-out: controlling effects as compared with non-treated cases (area of sporogony)
Method: Test on Preventive Effect Against Cucumber Powdery Mildew Cucumber (cultivar: […] After the drug solution dried, the cucumber was sprayed and inoculated with a conidiospore suspension of fungi of powdery mildew, and the cucumber was kept in a thermostatic chamber at 20° C. From 6 to 11 days after the inoculation, the area of sporogony was examined.

cucumber powdery mildew [2] = assay: Test on rainfastness of effect against cucumber powdery mildew; assay type: in vivo, Cucumber (cultivar: Suyo); conditions: Cucumis sativus, topical, 500 gai/ha
Method: Cucumber (cultivar: […] A day after the treatment, 10 mm/hr of artificial rainfall was applied for 1 hour. Together with seedlings not subjected to rainfall treatment (preventive), the cucumber was sprayed and inoculated with a conidiospore suspension of fungi of powdery mildew, and the cucumber was kept in a thermostatic chamber at 20° C. From 6 to 11 days after the inoculation, the number of lesions was examined, and the controlling rate was calculated by comparison with the non-treated cases. The results are shown in Table 5.

[3] = 10 mm/hr artificial rainfall for 1 hour a day after treatment, read-out: Controlling rate of cucumber powdery mildew (%) Rainfall
[4] = no rainfall treatment (preventive), read-out: Controlling rate of cucumber powdery mildew (%) Preventive

SMILES	melting point	pest or weed control at 125 ppm (wheat powdery mildew)	pest or weed control at 500 ppm (rice blast)	pest or weed control at 125 ppm (cucumber powdery mildew [1])	pest or weed control at 500 g/ha (cucumber powdery mildew [2]; [3])	pest or weed control at 500 g/ha (cucumber powdery mildew [2]; [4])
COc1cc(C)c(C(=O)c2c(F)ncc(C)c2C)c(OC)c1OC [1-19, 3-(2,3,4-trimethoxy-6-methylbenzoyl)-2-fluoro-4,5-dimethylpyridine]	91 to 92 °C	≥ 90%	–	–	–	–
COc1cc(C)c(C(=O)c2c(OC)ncc(Cl)c2Br)c(OC)c1OC [Compound No. 1-1, 3-(2,3,4-trimethoxy-6-methylbenzoyl)-4-bromo-5-chloro-2-methoxypyridine]	92 to 94 °C	≥ 90%	≥ 90%	≥ 90%	100%	100%
COc1cc(C)c(C(=O)c2c(OC)ncc(Cl)c2Cl)c(OC)c1OC [Compound No. 1-15, 3-(2,3,4-trimethoxy-6-methylbenzoyl)-4,5-dichloro-2-methoxypyridine]	84 to 86 °C	≥ 90%	≥ 90%	≥ 90%	100%	100%
COc1cc(C)c(C(=O)c2c(OC)ncc(Cl)c2OC)c(OC)c1OC [1-11, 3-(2,3,4-trimethoxy-6-methylbenzoyl)-5-chloro-2,4-dimethoxypyridine]	93 to 94 °C	≥ 90%	–	≥ 90%	–	–
COc1cc(C)c(C(=O)c2c(OC)ncc(C)c2C)c(OC)c1OC [1-20, 3-(2,3,4-trimethoxy-6-methylbenzoyl)-2-methoxy-4,5-dimethylpyridine]	84 to 86 °C	≥ 90%	–	–	–	–
COc1cc(C)c(C(=O)c2c(Cl)ncc(C)c2Cl)c(OC)c1OC [1-16, 3-(2,3,4-trimethoxy-6-methylbenzoyl)-2,4-dichloro-5-methylpyridine]	78 to 80 °C	≥ 90%	≥ 90%	≥ 90%	–	–

Source: patent US20060089390A1, “3-benzoyl-2,4,5-substituted pyridine derivatives or salts thereof and bactericides containing the same” (Ishihara Sangyo Kaisha, Ltd., priority 2002, published 2006)
